Patent US8835426B2, “Cyclic urea and carbamate inhibitors of 11β-hydroxysteroid dehydrogenase 1” (Vitae Pharmaceuticals, Inc., priority 2007, dated 2014)

Legend:
[1] = biological target: T1, purified 11β-HSD1 (recombinant, expressed in E. coli) (Homo sapiens, UniProt P28845); assay: Inhibition of purified 11β-HSD1, Scintillation Proximity Assay; assay type: biochemical; details: recombinant enzyme, 3H cortisone, NADPH, room temperature
T1 construct: made in house; host or cells: E. coli
Experimental: (§1) The inhibition of purified 11β-HSD1 by compounds of Formula I was measured as follows using a Scintillation Proximity Assay. All reactions were carried out at room temperature in 96 well flexible Microbeta reaction plates. The assay begins by adding 1 microliter of a 0.1 mM solution of a compound of Formula I in DMSO previously diluted in half-log increments (8 points) starting at 1 micromolar final concentration. To this dot was added 50 microliters of substrate solution (50 mM HEPES, pH 7.4, 100 mM KCl, 5 mM NaCl, 2 mM MgCl2 containing […] of ^3H cortisone, 1 mM NADPH). After a 10 minute incubation, 50 microliters of enzyme solution containing 20 nM recombinant 11β-HSD1 (expressed in E. coli, and affinity purified) was added, The reaction was incubated for 90 minutes, and stopped by adding 50 microliters of SPA bead mix (18-β-glycyrrhetinic acid, 10 micromolar final, 5 mg/ml protein A coated YSi SPA beads, and 1-microgram/ml alpha-cortisol antibody (East Coast Biologics). The plate shaken for 120 minutes, and the radioactivity corresponding to ^3H cortisol was measured on a Wallac Microbeta.

microsomal 11β-HSD1 = microsomal 11β-HSD1 (Homo sapiens, UniProt P28845); assay: Inhibition of microsomal 11β-HSD1, Scintillation Proximity Assay; assay type: biochemical; details: microsomal enzyme, same manner as purified enzyme assay
microsomal 11β-HSD1, sequence (P28845 whole entry): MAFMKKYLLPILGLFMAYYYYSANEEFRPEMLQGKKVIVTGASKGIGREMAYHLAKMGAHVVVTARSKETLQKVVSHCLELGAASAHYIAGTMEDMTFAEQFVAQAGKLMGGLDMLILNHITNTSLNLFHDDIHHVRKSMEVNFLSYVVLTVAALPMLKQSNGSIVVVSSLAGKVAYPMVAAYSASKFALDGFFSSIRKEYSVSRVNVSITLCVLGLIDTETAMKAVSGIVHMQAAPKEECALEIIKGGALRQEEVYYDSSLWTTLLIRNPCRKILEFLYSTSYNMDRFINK
Experimental: as §1
The inhibition of microsomal 11β-HSD1 was carried out in the same manner.

[2] = biological target: T2, 11β-HSD1 in whole cells (omental adipocytes) (Homo sapiens, UniProt P28845); assay: Inhibition of 11β-HSD1 in whole cells (omental adipocytes), cortisone to cortisol conversion, SPA; assay type: cell-based; details: 100 nM [3H] cortisone, 37 degrees C
T2 construct: host or cells: omental adipocytes differentiated from preadipocytes
T2 sequence (P28845 whole entry): as above
Experimental: The inhibition of 11β-HSD1 by compounds of Formula I in whole cells was measured as follows. Omental adipocytes cultured in 96-well plates were purchased from Zen-Bio, Inc. and used at least two weeks after differentiation from precursor preadipocytes started in medium supplemented with adipogenic and lipogenic hormones (human insulin, dexamethasone, isobutylmethylxanthine and PPAR-gamma agonist). The cells were maintained in full adipocyte medium (DMEM/Ham's F-12 (1:1, v/v), HEPES pH 7.4, fetal bovine serum, penicillin, streptomycin and Amphotericin B, supplied by Zen-Bio, Inc.) at 37 degrees C., 5% CO2 and transferred into serum-free, phenol red free medium for overnight incubation. The assay was performed in a total volume of 200 microliters. The cells were pre-incubated with serum-free, phenol red free medium containing 0.1% (v/v) of DMSO and various concentrations of compounds of Formula I at least 1 h before [^3H] cortisone in ethanol (50 Ci/mmol, ARC, Inc.) was added to achieve final concentration of cortisone of 100 nM. The cells were incubated for 3-4 at 37 degrees Centigrade, 5% CO2. Negative controls were incubated without radioactive substrate and received the same amount of [^3H] cortisone at the end of the incubation. Formation of [^3H] cortisol was monitored by analyzing 25 microliters of each supernatant in scintillation proximity assay (SPA). (Solly, K.; Mundt, S. S.; Zokian, H. J.; Ding, G. J.; Hermanowski-Vosatka, A.; Strulovici, B.; Zheng, W. Assay Drug Dev. Technol. 2005, 3, 377-384),

T1 sequence (P28845 whole entry): as above

- IC50 [1]: < 50 nM
- IC50 (microsomal 11β-HSD1): < 50 nM
- IC50 [2]: < 50 nM
Compound: CC(C)(C)[C@H]1CN(C2C3CC4CC(C3)CC2C4)C(=O)O1 (stereo partly drawn) [Example 12, (S)-3-(2-adamantyl)-5-tert-butyloxazolidin-2-one]
